In patent US20220411388A1, “SUBSTITUTED IMIDAZOLE CARBOXAMIDES AND THEIR USE IN THE TREATMENT OF MEDICAL DISORDERS” (Bial - R&D Investments, S.A., priority 2019, published 2022):
Converted amounts (≈) assume the structure as drawn.

How the values were obtained:
[1] = Compound solubility in water; type: physicochemical
acid ceramidase (hACR) = biological target: T1, acid ceramidase (hACR) (Homo sapiens, UniProt Q13510); experiment: Acid ceramidase inhibition, biochemical fluorescent assay with cell lysates overexpressing acid ceramidase (substrate Rbm14-12); details: cell lysate, 1 hr preincubation at RT, pH 4.5, Rbm14-12 6.3 μM; read-out: IC50 hACR
T1 construct: expressed in transfected cells
T1 sequence (Q13510 22-395): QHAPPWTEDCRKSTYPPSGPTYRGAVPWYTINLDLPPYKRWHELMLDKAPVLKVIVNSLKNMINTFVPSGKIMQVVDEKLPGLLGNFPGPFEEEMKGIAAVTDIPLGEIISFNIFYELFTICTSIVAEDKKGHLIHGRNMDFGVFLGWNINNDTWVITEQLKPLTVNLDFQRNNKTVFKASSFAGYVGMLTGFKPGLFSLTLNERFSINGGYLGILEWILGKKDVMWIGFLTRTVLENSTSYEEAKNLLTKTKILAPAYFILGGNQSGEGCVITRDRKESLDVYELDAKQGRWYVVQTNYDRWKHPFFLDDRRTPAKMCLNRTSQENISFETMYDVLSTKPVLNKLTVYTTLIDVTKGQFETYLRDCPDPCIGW
Summary of the method: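 Enzyme source was lysate from cells overexpressing acid ceramidase, 10 µg protein per reaction. Compounds were preincubated 1 h at RT in 25 mM NaAc, 100 mM NaCl, pH 4.5.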

Compound | solubility [1] | IC50 (acid ceramidase (hACR))
COc1nc(C(C)(C)C)cn1C(=O)NC1CCOCC1 [Example 114, 4-(tert-Butyl)-2-methoxy-N-(tetrahydro-2H-pyran-4-yl)-1H-imidazole-1-carboxamide] | 29 µg/mL (≈ 103 µM) | 200 to 1000 nM
CSc1nc(-c2cccnc2)cn1C(=O)NCCC1CC1 [Example 67a] | 23 µg/mL (≈ 76.1 µM) | 200 to 1000 nM
COc1nc(C)cn1C(=O)NCCc1ccccc1 [Example 143, 2-Methoxy-4-methyl-N-phenethyl-1H-imidazole-1-carboxamide] | 27 µg/mL (≈ 104 µM) | < 200 nM
N#Cc1ccc(-c2cn(C(=O)NCCc3ccccc3)cn2)cn1 [Example 28, 4-(6-Cyanopyridin-3-yl)-N-phenethyl-1H-imidazole-1-carboxamide] | 5 µg/mL (≈ 15.8 µM) | < 200 nM
COc1nc(Cl)cn1C(=O)NCCC1CCCC1(F)F (stereo not drawn) [Example 185, 4-Chloro-N-(2-(2,2-difluorocyclopentyl)ethyl)-2-methoxy-1H-imidazole-1-carboxamide] | 29 µg/mL (≈ 94.2 µM) | < 200 nM
CCOc1nc(-c2cccnc2)cn1C(=O)NCCC1CC1 [Example 64, N-(2-Cyclopropylethyl)-2-ethoxy-4-(pyridin-3-yl)-1H-imidazole-1-carboxamide] | 16.8 µg/mL (≈ 55.9 µM) | > 1000 nM
COc1nccn1C(=O)NCCc1ccccc1 [Example 135, 2-Methoxy-N-phenethyl-1H-imidazole-1-carboxamide] | 26 µg/mL (≈ 106 µM) | < 200 nM
CC(C)CCNC(=O)n1cc(C(C)(C)C)nc1Oc1ccccc1F [Example 115, 4-tert-Butyl-2-(2-fluorophenoxy)-N-iso-pentyl-1H-imidazole-1-carboxamide] | 0.4 µg/mL (≈ 1.15 µM) | 200 to 1000 nM
CC(C)Oc1nc(Cl)cn1C(=O)NCCCC(F)(F)F [Example 187, 4-Chloro-2-isopropoxy-N-(4,4,4-trifluorobutyl)-1H-imidazole-1-carboxamide] | 29 µg/mL (≈ 92.4 µM) | 200 to 1000 nM
CN1CCC(Oc2nc(Cl)cn2C(=O)NCCCC(F)(F)F)CC1 [Example 188, 4-Chloro-2-((1-methylpiperidin-4-yl)oxy)-N-(4,4,4-trifluorobutyl)-1H-imidazole-1-carboxamide] | 36 µg/mL (≈ 97.6 µM) | 200 to 1000 nM
O=C(NCCc1ccccc1)n1cnc(-c2ccc(F)nc2)c1 [Example 30, 4-(6-Fluoropyridin-3-yl)-N-phenethyl-1N-imidazole-1-carboxamide] | 3.4 µg/mL (≈ 11 µM) | < 200 nM
O=C(NCCc1ccccc1)n1cnc(-c2ccccn2)c1 [Example 4, N-Phenethyl-4-(pyridin-2-yl)-1H-imidazole-1-carboxamide] | 21.1 µg/mL (≈ 72.2 µM) | 200 to 1000 nM
COc1ccc(-c2cn(C(=O)NC3CCCCC3)cn2)cn1 [Example 62, N-Cyclohexyl-4-(6-methoxypyridin-3-yl)-1H-imidazole-1-carboxamide] | 0.6 µg/mL (≈ 2 µM) | > 1000 nM
CSc1nc(C(C)(C)C)cn1C(=O)NCCC(C)C [Example 80, 4-(tert-Butyl)-N-iso-pentyl-2-(methylthio)-1H-imidazole-1-carboxamide] | 0.2 µg/mL (≈ 0.706 µM) | < 200 nM
COc1nccn1C(=O)NCCCC(C)C [Example 123, 2-Methoxy-N-(4-methylpentyl)-1H-imidazole-1-carboxamide] | 16 µg/mL (≈ 71 µM) | < 200 nM
CC(C)CCCNC(=O)n1cnc(-c2cccnc2)c1 [Example 33] | 18.9 µg/mL (≈ 69.4 µM) | 200 to 1000 nM
COc1nc(C2CC2)cn1C(=O)NC1CC1 [Example 125, N,4-Dicyclopropyl-2-methoxy-1H-imidazole-1-carboxamide] | 14 µg/mL (≈ 63.3 µM) | > 1000 nM
COc1nc(-c2coc(C(C)(C)C)n2)cn1C(=O)NCCC1CC1 [Example 103, 4-(2-(tert-Butyl)oxazol-4-yl)-N-(2-cyclopropylethyl)-2-methoxy-1H-imidazole-1-carboxamide] | 6 µg/mL (≈ 18.1 µM) | > 1000 nM
CC(C)CNC(=O)n1cnc(C(C)(C)C)c1 [Example 87, 4-(tert-Butyl)-N-iso-butyl-1H-imidazole-1-carboxamide] | 17 µg/mL (≈ 76.1 µM) | 200 to 1000 nM
COc1nc(-c2ccccc2)cn1C(=O)NC1CCCC(F)(F)C1 (stereo not drawn) [Example 158, N-(3,3-Difluorocyclohexyl)-2-methoxy-4-phenyl-1H-imidazole-1-carboxamide] | 1 µg/mL (≈ 2.98 µM) | 200 to 1000 nM
COc1nc(-c2ccccc2)cn1C(=O)NCCCc1ccccc1 [Example 12, 2-Methoxy-4-phenyl-N-(3-phenylpropyl)-1H-imidazole-1-carboxamide] | 1 µg/mL (≈ 2.98 µM) | 200 to 1000 nM
CC(C)CC(C)NC(=O)n1cnc(-c2cccnc2)c1 (stereo not drawn) [Example 59, N-(4-Methylpentan-2-yl)-4-(pyridin-3-yl)-1H-imidazole-1-carboxamide] | 22.3 µg/mL (≈ 81.9 µM) | 200 to 1000 nM

Continued, values first:

solubility [1] | IC50 (acid ceramidase (hACR)) | Compound
8 µg/mL (≈ 22.2 µM) | < 200 nM | Cc1cn(C(=O)NC2CCC(F)(F)CC2)c(Oc2cccc(C#N)c2)n1 [Example 164, 2-(3-Cyanophenoxy)-N-(4,4-difluorocyclohexyl)-4-methyl-1H-imidazole-1-carboxamide]
32 µg/mL (≈ 121 µM) | 200 to 1000 nM | COc1nc(C)cn1C(=O)NCCCC(F)(F)F [Example 139, 2-Methoxy-4-methyl-N-(4,4,4-trifluorobutyl)-1H-imidazole-1-carboxamide]
10 µg/mL (≈ 31.7 µM) | < 200 nM | COc1nc(C(C)(C)C)cn1C(=O)NCCCc1ccccc1 [Example 101, 4-(tert-Butyl)-2-methoxy-N-(3-phenylpropyl)-1H-imidazole-1-carboxamide]
11 µg/mL (≈ 43.8 µM) | < 200 nM | CC(C)CC(C)NC(=O)n1cnc(C(C)(C)C)c1 (stereo not drawn) [Example 79, 4-(tert-Butyl)-N-(4-methylpentan-2-yl)-1H-imidazole-1-carboxamide]
21.5 µg/mL (≈ 83.2 µM) | 200 to 1000 nM | CC(C)CCNC(=O)n1cnc(-c2cccnc2)c1 [Example 21, N-iso-Pentyl-4-(pyridin-3-yl)-1H-imidazole-1-carboxamide]
17 µg/mL (≈ 51 µM) | 200 to 1000 nM | COc1nc(C(C)(C)C)cn1C(=O)NCCC1(C(F)(F)F)CC1 [Example 90, 4-(tert-Butyl)-2-methoxy-N-(2-(1-(trifluoromethyl)cyclopropyl)ethyl)-1H-imidazole-1-carboxamide]
10 µg/mL (≈ 44 µM) | < 200 nM | CSc1nccn1C(=O)NCCC(C)C [Example 132, N-iso-Pentyl-2-(methylthio)-1H-imidazole-1-carboxamide]
27 µg/mL (≈ 88.4 µM) | < 200 nM | COc1nccn1C(=O)NCCCCC1(C(F)(F)F)CC1 [Example 138, 2-Methoxy-N-(4-(1-(trifluoromethyl)cyclopropyl)butyl)-1H-imidazole-1-carboxamide]
29 µg/mL (≈ 99.6 µM) | < 200 nM | COc1nccn1C(=O)NCCCC1(C(F)(F)F)CC1 [Example 137, 2-Methoxy-N-(3-(1-(trifluoromethyl)cyclopropyl)propyl)-1H-imidazole-1-carboxamide]
19.1 µg/mL (≈ 78.2 µM) | > 1000 nM | CC(C)CNC(=O)n1cnc(-c2cccnc2)c1 [Example 35, N-iso-Butyl-4-(pyridin-3-yl)-1H-imidazole-1-carboxamide]
23 µg/mL (≈ 89.7 µM) | 200 to 1000 nM | O=C(NCCC1CC1)n1cnc(-c2cccnc2)c1 [Example 22, N-(2-Cyclopropylethyl)-4-(pyridin-3-yl)-1H-imidazole-1-carboxamide]
23 µg/mL (≈ 80 µM) | < 200 nM | COc1nc(C)cn1C(=O)NCCCCc1ccccc1 [Example 156, 2-Methoxy-4-methyl-N-(4-phenylbutyl)-1H-imidazole-1-carboxamide]
29 µg/mL (≈ 98.2 µM) | 200 to 1000 nM | COc1nc(C2CCOCC2)cn1C(=O)NCCC(C)C [Example 110, N-iso-Pentyl-2-methoxy-4-(tetrahydro-2H-pyran-4-yl)-1H-imidazole-1-carboxamide]
21.7 µg/mL (≈ 74.2 µM) | 200 to 1000 nM | CC(C)CCNC(=O)n1cnc(CC2CCN(C)CC2)c1 [Example 56, N-iso-Pentyl-4-((1-methylpiperidin-4-yl)methyl)-1H-imidazole-1-carboxamide]
21 µg/mL (≈ 73.1 µM) | < 200 nM | Cc1cn(C(=O)NCCc2ccccc2)c(OC(C)C)n1 [Example 149, 2-iso-Propoxy-4-methyl-N-phenethyl-1H-imidazole-1-carboxamide]
23 µg/mL (≈ 91.5 µM) | > 1000 nM | COc1nc(C2CC2)cn1C(=O)NCCC(C)C [Example 127, 4-Cyclopropyl-N-iso-pentyl-2-methoxy-1H-imidazole-1-carboxamide]
14 µg/mL (≈ 62.1 µM) | 200 to 1000 nM | COc1nc(C)cn1C(=O)NCCC(C)C [Example 119, N-iso-Pentyl-2-methoxy-4-methyl-1H-imidazole-1-carboxamide]
1 µg/mL (≈ 2.98 µM) | 200 to 1000 nM | COc1nc(-c2ccccc2)cn1C(=O)NC1CCC(F)(F)CC1 [Example 157, N-(4,4-Difluorocyclohexyl)-2-methoxy-4-phenyl-1H-imidazole-1-carboxamide]
7 µg/mL (≈ 24.9 µM) | 200 to 1000 nM | CC(C)CNC(=O)n1cc(C(C)(C)C)nc1OC(C)C [Example 107, 4-(tert-Butyl)-N-iso-butyl-2-iso-propoxy-1H-imidazole-1-carboxamide]
15 µg/mL (≈ 59.7 µM) | > 1000 nM | COc1nc(C2CCOC2)cn1C(=O)NC1CC1 (stereo not drawn) [Example 128, N-Cyclopropyl-2-methoxy-4-(tetrahydrofuran-3-yl)-1H-imidazole-1-carboxamide]
